Laboratory results: ChEMBL document CHEMBL3272277, “Stereocontrolled glycosidation of daunomycinone. Synthesis and biological evaluation of 6-hydroxy-L-arabino analogues of antitumor anthracyclines” (J Med Chem, 1976)
≈ marks a conversion by molar mass, not a printed value.

Assays:
Mus musculus [1] = experiment: Toxicity in mouse allografted with mouse Sarcoma 180 cells assessed as mortality at 2 mg/kg, ip on day 1 post challenge; type: organism-based; design: dose 2 mg/kg, route intraperitoneal; details: in vivo
MEF = experiment: Inhibition of Murine sarcoma virus (Moloney) foci formation in MEF after 72 hrs; type: functional; details: Mus musculus, read-out: ID50 (the source's name)
Mus musculus [2] = experiment: Toxicity in mouse allografted with mouse Sarcoma 180 cells assessed as mortality at 10 mg/kg, ip on day 1 post challenge; type: organism-based; design: dose 10 mg/kg, route intraperitoneal; details: in vivo
[3] = Antiproliferative activity against MEF after 72 hrs; type: cell-based; details: mouse, MEF cells; read-out: ID50
HeLa = experiment: Cytotoxicity against human HeLa cells assessed as cloning efficiency after 8 hrs; type: functional; details: read-out: ID50 (the source's name)
Sarcoma-180 [4] = experiment: Antitumor activity against mouse Sarcoma 180 cells allografted in mouse assessed as average survival time at 10 mg/kg, ip on day 1 post challenge relative to untreated control; type: functional; details: route intraperitoneal
Mus musculus [5] = experiment: Toxicity in mouse allografted with mouse Sarcoma 180 cells assessed as mortality at >5 mg/kg, ip on day 1 post challenge; type: organism-based; details: in vivo
Sarcoma-180 [6] = experiment: Antitumor activity against mouse Sarcoma 180 cells allografted in mouse assessed as average survival time at 2 mg/kg, ip on day 1 post challenge relative to untreated control; type: functional; details: route intraperitoneal

Structure (SMILES)	Activity (Mus musculus [1])	IC50 (MEF) [µg/mL]	Activity (Mus musculus [2])	GI50 at 72 h [3] [µg/mL]	IC50 (HeLa) [µg/mL]	T/C (Sarcoma-180 [4]) [%]	Activity (Mus musculus [5])	T/C (Sarcoma-180 [6]) [%]
COc1cccc2c1C(=O)c1c(O)c3c(c(O)c1C2=O)C[C@@](O)(C(C)=O)C[C@@H]3O[C@H]1C[C@H](N)[C@@H](O)[C@H](CO)O1.Cl	Non-toxic	0.1	Non-toxic	0.256	> 10	167		
COc1cccc2c1C(=O)c1c(O)c3c(c(O)c1C2=O)C[C@@](O)(C(=O)CO)C[C@@H]3O[C@H]1C[C@H](N)[C@@H](O)[C@H](CO)O1	Non-toxic	0.025 (≈ 0.0447 µM)	Non-toxic	0.05 (≈ 0.0894 µM)	1 (≈ 1.79 µM)	162		
COc1cccc2c1C(=O)c1c(O)c3c(c(O)c1C2=O)C[C@@](O)(C(C)=O)C[C@@H]3O[C@H]1C[C@H](N)[C@@H](O)[C@H](C)O1							Toxic	
COc1cccc2c1C(=O)c1c(O)c3c(c(O)c1C2=O)C[C@@](O)(C(=O)CO)C[C@@H]3O[C@H]1C[C@H](N)[C@@H](O)[C@H](C)O1 [EPIRUBICIN]							Toxic	
COc1cccc2c1C(=O)c1c(O)c3c(c(O)c1C2=O)C[C@@](O)(C(C)=O)C[C@@H]3O[C@H]1C[C@H](N)[C@H](O)[C@H](C)O1 [DAUNORUBICIN]		0.0055 (≈ 0.0104 µM)		0.009 (≈ 0.0171 µM)	0.013 (≈ 0.0246 µM)			192
COc1cccc2c1C(=O)c1c(O)c3c(c(O)c1C2=O)C[C@@](O)(C(=O)CO)C[C@@H]3O[C@H]1C[C@H](N)[C@H](O)[C@H](C)O1.Cl [DOXORUBICIN HYDROCHLORIDE]		0.0025		0.007	0.11			210
